Tests used:
[1] = Re-dissolution (Re-D) SABRE: precipitation with ethyl acetate, re-dissolution in water, phase separation at different magnetic fields; type: physicochemical
Protocol: To investigate the precipitation and re-dissolution of HP [1-^13C]pyruvate, a phase separation approach was applied, FIGS. 5A-5B. To this end, the fact that water and EtAc are immiscible was exploited to modify the setup and procedure accordingly. In this approach, the precipitation was performed in the same NMR tube where hyperpolarization took place. 400 μL EtAc were added quickly to the sample consisting of 100 μL of 30 mM HP [1-^13C]pyruvate, right after removing this sample from the 0.4 μT field and releasing the pressure (≈3-4 s). To mix the solution after EtAc addition, further p-H2 bubbling was used at a low flow rate (˜5-10 scc/m, ambient pressure), FIGS. 5A-5B. For re-dissolution, 300 μL water were added directly to the NMR tube with the precipitate-containing solution, and again, gas flow was used to mix and dissolve the pyruvate microcrystals. After mixing the solutions, most of the aqueous phase rapidly separated from the organic phase (≈1 s). Typical precipitation time was tprec≈2 s and water addition time twater≈6 s, where twater consisted of 1 s to add water, plus 4 s to bubble gas, and 1 s to settle the solution, FIGS. 5A-5B (see FIG. 17 for more information). […] Using this protocol, the obtained two-phase samples visibly contained a major fraction of the catalyst in the organic phase (which remained yellowish and turned reddish after exposure to atmosphere, FIG. 15), whereas a clear aqueous solution of total volume of ≈335±10 μL was obtained (as detailed below approximately half of the CH3OH remained in the aqueous phase), FIGS. 14A-14B. The total volumes of the investigated mixtures containing the precipitate were approximately 500 μL (3.9 cm fill height in the NMR tube), and after the addition of water the total fluid volume was ≈800 μL (≈6 cm fill height). During the phase mixing, parts of the sample were lifted by approximately 5 cm by the ascending p-H2 gas bubbles. The sample height in the NMR tube was the decisive factor affecting the choice of solvent volumes to minimize the mixtures from leaving the 1.4 T field of the benchtop NMR spectrometer (approximately 10 cm along the sample tube) as much as possible. […] These limitations are clear shortcomings of the current experimental design and can be remedied in the future with purpose-built hyperpolarization equipment.
This separation approach was investigated at 4 different magnetic fields: (i) Earth's field; (ii) 10 mT; (iii) 0.3 T; and (iv) 1.4 T, FIGS. 6A-6B. More details on the experiment setups are reported in the SI. Re-D SABRE was performed at (i)-(iv), and the samples were then rapidly transferred to the benchtop 1.4 T NMR, such that the aqueous phase was approximately centered in the radiofrequency coil. In case (iv), for which no transfer was needed, a ≈5-s delay was added to the end of the protocol for consistency with the time needed to transfer the samples in (i-iii).
The detection and quantification of hyperpolarization took place at 1.4 T in all cases.
A more rigorous phase mixing protocol was tested, where the bubbling tube was moved up and down rapidly three times for phase mixing during the twater≈6 s mixing time. […] Considering the final volume of the aqueous phase of 335±10 μL and the measured pyruvate concentration of 5.8±0.8 mM (in the diluted Re-D SABRE sample), the detected ^13C signals corresponded to a nuclear polarization of P13C=9±1% or 8±1%, i.e., ε13C of ≈75,000 at 1.4 T, respectively, N=2 samples, FIGS. 7A-8B. […]

[2] = Precipitation without water addition: 13C polarization of residual dissolved pyruvate in organic phase; type: physicochemical; settings: for P13C in precipitated sample, no water added / 13C polarization in precipitated sample, no water added: residual dissolved pyruvate in EtAc/CH3OH
Protocol: To investigate the impact of precipitate relaxation in variable magnetic fields during the dissolution process, the Re-D SABRE experiment was repeated, omitting the addition of water after precipitation (i.e., the decay of ^13C HP signal in the dissolved phase of the precipitated samples was measured). […] For (iii), P13C was still much lower compared to the sample that rested at the 1.4 T magnet (setup iv), i.e., P13C=0.08±0.02% and P13C=3.4±0.9%, respectively—this signal is entirely derived from the remaining dissolved pyruvate in solution (2.3±0.6 mM in the 500 μL sample of EtAc and CH3OH, FIG. 17) not from the precipitated micro-crystalline phase. […] This observation is important because it means the Re-D SABRE process can be successfully performed at storage fields as low as 0.3 T. The rapid ^13C T1 of HP [1-^13C]pyruvate in the EtAc fraction at Earth's field, estimated to be <1.3 s, may be caused by the high catalyst: substrate ratio in the EtAc.
Description of the magnets used in the precipitation and relaxation study: The precipitation and phase separation approach was investigated at 4 different magnetic fields: (i) Earth's field; (ii) 10 mT; (iii) 0.3 T; and (iv) 1.4 T. For (i), the samples were positioned in a plastic holder at a defined position in the laboratory at which a magnetic field of ≈40 μT was measured. For (ii), a modified setup of permanent magnets creating a 10 mT magnetic field over a volume of ≈20×10×10 cm^3 was employed. For (iii), a hollow cylindrical magnet (K&J Magnetics, Inc., P/N RY04Y0) was used with a length of 5.1 cm and an inner bore of approximately 6.4 mm diameter in which the NMR tube was positioned. For (iv), the NMR benchtop spectrometer was used, which approximately provides the constant 1.4 T field up to 10 cm above the magnet center.

Structure (SMILES): CC(=O)[13C](=O)O [[1-^13C]pyruvate]
- ε13C after Re-D SABRE ([1]; aqueous phase, at 1.4 T): ≈ 75,000
- P13C after Re-D SABRE ([1]; precipitation and re-dissolution at 0.3 T, N=2, aqueous phase): 4.0±0.8%
- P13C after Re-D SABRE ([1]; precipitation and re-dissolution at 1.4 T, N=3, aqueous phase): 3.6±0.6%
- P13C after Re-D SABRE ([1]; precipitation and re-dissolution at 10 mT, aqueous phase, detected at 1.4 T): 0.05±0.02%
- HP 13C signal after Re-D SABRE ([1]; precipitation and re-dissolution at Earth's field, detected at 1.4 T): No HP ^13C signal was observed
- P13C in precipitated sample, no water added ([2]; 0.3 T (iii)): 0.08±0.02%
- P13C in precipitated sample, no water added ([2]; 1.4 T (iv)): 3.4±0.9%
- 13C polarization in precipitated sample, no water added ([2]; 10 mT (ii)): no measurable ^13C polarization was observed
- 13C polarization in precipitated sample, no water added ([2]; Earth's field (i)): no measurable ^13C polarization was observed
- P13C in (iii) 0.3 T lower than in (iv) 1.4 T ([2]; dissolved phase in EtAc fraction): ≈ 40 times
